Test results taken from patent US11358969B2, “Indole AHR inhibitors and uses thereof” (Ikena Oncology, Inc., priority 2017, dated 2022).
Each block holds one compound with its values, some of them ahead of it.

Experiments:
AHR = target: T1, AHR (UniProt P35869); assay: DRE-Luciferase Reporter Assay (Alternate Method) (Example 1B); format: cell-based, murine or human; settings: cell line and AHR activating ligand not specified
T1 construct: IC50
T1 sequence (P35869 1-848): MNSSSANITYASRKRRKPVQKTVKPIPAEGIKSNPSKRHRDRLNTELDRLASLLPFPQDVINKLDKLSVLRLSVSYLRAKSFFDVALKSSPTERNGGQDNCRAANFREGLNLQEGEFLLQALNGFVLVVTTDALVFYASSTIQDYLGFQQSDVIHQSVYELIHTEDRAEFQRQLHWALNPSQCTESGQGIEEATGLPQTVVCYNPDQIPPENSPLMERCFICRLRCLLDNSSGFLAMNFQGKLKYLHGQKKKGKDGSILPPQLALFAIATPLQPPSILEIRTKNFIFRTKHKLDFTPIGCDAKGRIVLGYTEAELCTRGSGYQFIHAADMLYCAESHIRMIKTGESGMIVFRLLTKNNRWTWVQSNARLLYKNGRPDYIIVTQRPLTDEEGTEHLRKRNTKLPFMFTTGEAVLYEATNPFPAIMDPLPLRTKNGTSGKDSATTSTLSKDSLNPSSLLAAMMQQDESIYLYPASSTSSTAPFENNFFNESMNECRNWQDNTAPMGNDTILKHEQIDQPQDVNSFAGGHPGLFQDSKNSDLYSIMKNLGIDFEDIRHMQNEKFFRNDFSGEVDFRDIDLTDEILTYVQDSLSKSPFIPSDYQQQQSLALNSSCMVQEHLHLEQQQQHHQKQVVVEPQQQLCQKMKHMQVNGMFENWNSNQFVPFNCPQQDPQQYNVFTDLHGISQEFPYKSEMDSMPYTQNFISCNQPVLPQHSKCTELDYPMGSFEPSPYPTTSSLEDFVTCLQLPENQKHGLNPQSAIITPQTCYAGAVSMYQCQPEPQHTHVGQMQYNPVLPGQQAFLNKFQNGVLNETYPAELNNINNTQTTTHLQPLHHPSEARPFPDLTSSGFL

[1] = test system: CD3/CD28 activated human T cells; assay: T-Cell Study with I-70 (Example 1F); format: cell-based; settings: human T cells activated with CD3/CD28 tetramer, 24 hours
Experimental: Human T cells were isolated by CD3 negative selection after isolation of PBMCs from blood of human donors via ficoll density gradient centrifugation. One million T cells were activated with 25 uL of CD3/CD28 tetramer (Stemcell) in the presence or absence of I-70 for 24 hours, after which media was removed and stored at −80 C for later cytokine analysis. Cells were then washed 2× with PBS, before isolating RNA according to the manufacturer's instructions for the RNAeasy mini kit (Qiagen).
RNA was converted to cDNA using VILO-IV RT mastermix (Thermofisher), and q-RT-PCR was performed to determine levels of IL-22 (Hs01574154_m1), Cyp1a1 (Hs01054797_g1), and GAPDH (Hs00266705_g1). Data was analyzed using the ddCT method whereby each sample is first normalized to GAPDH housekeeping gene before being normalized to control treatment.
Cytokine levels were determined utilizing the mesoscale discovery (MSD) platform (K15067L-2) and MSD analysis software according to the manufacturer's instructions. IL-22 protein levels are decreased and pro-inflammatory IL-2 protein levels are increased by treatment with I-70, as shown in FIG. 2.

[2] = test system: CT26 murine colon carcinoma; assay: Efficacy study in the mouse colorectal cancer model CT26 (Example 1G); format: in vivo; settings: CT26 in Balb/c mice, FIG. 3
Experimental: CT26 is a murine colon carcinoma cell line obtained from ATCC. CT26 cells were cultured in RPMI supplemented with 10% FBS. 5×10^5 CT26 cells in 100 μl PBS were implanted subcutaneously in 6-8 week old female, Balb/c mice. Dosing for the efficacy study starts 4 days post implant: AHR antagonist was dosed orally, every day (QD) at or 10 mg/kg for 3 weeks. anti-PD-1 (BioXcell RMP1-14) was twice a week, intraperitoneally (IP) at 10 mg/kg for five total doses. Tumors were monitored by caliper measurement every 2-3 days and body weight measured three times per week.

B16-IDO murine melanoma = assay: Efficacy study in the mouse melanoma model B16-IDO (Example 1H); format: in vivo; settings: B16-IDO in C57BL/6 mice, FIG. 4
Experimental: B16-IDO is a murine melanoma carcinoma cell line that has been engineered to overexpress IDO1 (Holmgaard, 2015 Cell Reports). B16-IDO cells were cultured in DMEM supplemented with 10% FBS. 2×10^5 B16-IDO cells in 50 μl PBS were implanted intradermally in 6-8 week old female, C57BL/6 mice. Dosing for the efficacy study starts 7 days post implant: AHR antagonist I-70 was dosed orally, every day (QD) at or 10 mg/kg for 2 weeks. Anti-PD-1 (BioXcell RMP1-14) was administered every 3rd day, intraperitoneally (IP) at 250 μg/mouse for five total doses. Tumors were monitored by caliper measurement every 2-3 days and body weight measured three times per week.

IC50 (AHR): < 500 nM
SMILES: CC(C)c1cnn2c(NCCc3c[nH]c4ccccc34)cc(-c3cncc(F)c3)nc12 [I-2, N-(2-(1H-indol-3-yl)ethyl)-5-(5-fluoropyridin-3-yl)-3-isopropylpyrazolo[1,5-a]pyrimidin-7-amine]

IC50 (AHR): < 500 nM
SMILES: CC(C)c1cnn2c(N[C@@H]3CCc4[nH]c5ccccc5c4C3)nc(-c3cncc(F)c3)nc12 [I-40, (3R)—N-[2-(5-Fluoro-3-pyridyl)-8-isopropyl-pyrazolo[1,5-a][1,3,5]triazin-4-yl]-2,3,4,9-tetrahydro-1H-carbazol-3-amine]

cyp1a1 RNA expression levels ([1]; q-RT-PCR, FIG. 1): inhibited
SMILES: Cc1cnn2c(NCCc3c[nH]c4ccccc34)cc(-c3cncc(F)c3)nc12 [I-70, 5-(5-Fluoro-3-pyridyl)-N-[2-(1H-indol-3-yl)ethyl]-3-methyl-pyrazolo[1,5-a]pyrimidin-7-amine]
IL-22 protein levels ([1]; MSD platform, FIG. 2): decreased
pro-inflammatory IL-2 protein levels ([1]; MSD platform, FIG. 2): increased
IL22 RNA expression levels ([1]; q-RT-PCR, FIG. 1): inhibited
Tumor growth ([2]; I-70 alone, orally QD 10 mg/kg for 3 weeks): inhibited
Tumor growth ([2]; I-70 in combination with anti-PD-1 (IP 10 mg/kg twice a week)): inhibited
Tumor growth (B16-IDO murine melanoma; I-70 alone, orally QD 10 mg/kg for 2 weeks): inhibited
Tumor growth (B16-IDO murine melanoma; I-70 in combination with anti-PD-1 (IP 250 μg/mouse every 3rd day)): inhibited

IC50 (AHR): < 500 nM
SMILES: Cc1cnn2c(N[C@@H]3CCc4[nH]c5ccccc5c4C3)nc(-c3cncc(F)c3)nc12 [I-201, (3R)—N-[2-(5-fluoro-3-pyridyl)-8-methyl-pyrazolo[1,5-a][1,3,5]triazin-4-yl]-2,3,4,9-tetrahydro-1H-carbazol-3-amine]
